Test results: patent US20240246942A1, “KINASE INHIBITORS FOR THE TREATMENT OF NEURODEGENERATIVE DISEASES” (priority 2020, published 2024)

Experiments:
Experiment in all cases: biochemical
[1] = molecular target: T1, panel of 374 wild-type kinases (Homo sapiens, UniProt P53355); conditions: read-out: % Enzyme Activity (relative to DMSO controls), DAPK1
T1 construct: purchased Reaction Biology Corporation

[2] = molecular target: T2, panel of 374 wild-type kinases (Homo sapiens, UniProt P42685); conditions: read-out: % Enzyme Activity (relative to DMSO controls), FRK/PTK5
T2 construct: purchased Reaction Biology Corporation
T2 sequence (P42685 whole entry): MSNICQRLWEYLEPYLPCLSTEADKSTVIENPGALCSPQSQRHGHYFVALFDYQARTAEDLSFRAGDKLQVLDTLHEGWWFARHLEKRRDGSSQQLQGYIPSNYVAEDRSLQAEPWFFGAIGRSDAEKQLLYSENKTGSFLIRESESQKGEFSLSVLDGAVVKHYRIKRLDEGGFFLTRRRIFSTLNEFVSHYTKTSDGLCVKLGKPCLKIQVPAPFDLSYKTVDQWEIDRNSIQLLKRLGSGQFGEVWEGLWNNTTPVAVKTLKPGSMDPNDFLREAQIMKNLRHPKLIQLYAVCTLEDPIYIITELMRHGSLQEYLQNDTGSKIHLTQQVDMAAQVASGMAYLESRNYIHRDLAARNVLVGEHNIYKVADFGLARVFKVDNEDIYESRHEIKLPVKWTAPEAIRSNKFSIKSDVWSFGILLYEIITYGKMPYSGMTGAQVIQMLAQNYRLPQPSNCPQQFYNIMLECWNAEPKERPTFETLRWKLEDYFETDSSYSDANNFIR

[3] = molecular target: T3, panel of 374 wild-type kinases (Homo sapiens, UniProt P07332); conditions: read-out: % Enzyme Activity (relative to DMSO controls), FES/FPS
T3 construct: purchased Reaction Biology Corporation
T3 sequence (P07332 whole entry): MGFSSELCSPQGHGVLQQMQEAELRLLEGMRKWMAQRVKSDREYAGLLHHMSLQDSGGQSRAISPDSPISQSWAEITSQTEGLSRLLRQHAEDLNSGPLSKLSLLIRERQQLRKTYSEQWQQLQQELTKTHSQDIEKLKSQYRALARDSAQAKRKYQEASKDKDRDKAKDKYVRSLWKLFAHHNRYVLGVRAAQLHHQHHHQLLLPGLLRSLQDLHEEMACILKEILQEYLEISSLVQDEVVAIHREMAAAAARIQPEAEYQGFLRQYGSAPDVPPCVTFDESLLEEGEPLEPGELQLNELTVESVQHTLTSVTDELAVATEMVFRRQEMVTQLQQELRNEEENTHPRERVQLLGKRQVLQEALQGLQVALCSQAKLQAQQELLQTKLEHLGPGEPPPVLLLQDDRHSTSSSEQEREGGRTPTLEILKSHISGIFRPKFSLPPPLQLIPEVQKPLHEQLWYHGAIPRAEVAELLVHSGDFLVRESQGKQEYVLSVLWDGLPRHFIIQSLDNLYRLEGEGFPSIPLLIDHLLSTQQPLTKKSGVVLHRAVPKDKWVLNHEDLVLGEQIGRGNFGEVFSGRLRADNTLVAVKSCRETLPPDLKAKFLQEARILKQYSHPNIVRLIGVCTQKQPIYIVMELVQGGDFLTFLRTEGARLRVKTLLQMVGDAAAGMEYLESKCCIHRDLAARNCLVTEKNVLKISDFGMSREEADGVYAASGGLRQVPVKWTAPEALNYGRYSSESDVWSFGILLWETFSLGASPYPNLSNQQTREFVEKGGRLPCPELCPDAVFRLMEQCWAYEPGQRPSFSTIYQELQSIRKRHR

[4] = molecular target: T4, panel of 374 wild-type kinases (Homo sapiens, UniProt Q8WTQ7); conditions: for remaining activity at 5 µM: read-out: % Enzyme Activity (relative to DMSO controls), GRK7
T4 construct: purchased Reaction Biology Corporation
T4 sequence (Q8WTQ7 1-553): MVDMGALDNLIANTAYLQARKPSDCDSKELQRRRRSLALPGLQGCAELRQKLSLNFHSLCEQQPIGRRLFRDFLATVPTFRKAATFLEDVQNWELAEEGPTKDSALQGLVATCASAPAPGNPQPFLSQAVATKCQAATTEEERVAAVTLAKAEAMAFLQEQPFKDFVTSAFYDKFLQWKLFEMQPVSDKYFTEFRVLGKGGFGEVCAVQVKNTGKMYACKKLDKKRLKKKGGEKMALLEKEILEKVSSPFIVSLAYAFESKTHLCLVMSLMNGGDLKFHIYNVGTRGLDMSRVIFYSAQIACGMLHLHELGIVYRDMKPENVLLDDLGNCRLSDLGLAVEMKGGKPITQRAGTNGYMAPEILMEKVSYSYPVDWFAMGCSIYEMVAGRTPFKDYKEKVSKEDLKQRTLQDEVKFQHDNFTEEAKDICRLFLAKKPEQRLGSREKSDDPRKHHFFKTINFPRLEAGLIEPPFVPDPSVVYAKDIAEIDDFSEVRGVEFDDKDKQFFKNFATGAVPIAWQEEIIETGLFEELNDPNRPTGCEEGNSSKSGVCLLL

[5] = molecular target: T5, panel of 374 wild-type kinases (Homo sapiens, UniProt Q96PF2); conditions: read-out: % Enzyme Activity (relative to DMSO controls), kinase TSSK2
T5 construct: purchased Reaction Biology Corporation
T5 sequence (Q96PF2 1-358): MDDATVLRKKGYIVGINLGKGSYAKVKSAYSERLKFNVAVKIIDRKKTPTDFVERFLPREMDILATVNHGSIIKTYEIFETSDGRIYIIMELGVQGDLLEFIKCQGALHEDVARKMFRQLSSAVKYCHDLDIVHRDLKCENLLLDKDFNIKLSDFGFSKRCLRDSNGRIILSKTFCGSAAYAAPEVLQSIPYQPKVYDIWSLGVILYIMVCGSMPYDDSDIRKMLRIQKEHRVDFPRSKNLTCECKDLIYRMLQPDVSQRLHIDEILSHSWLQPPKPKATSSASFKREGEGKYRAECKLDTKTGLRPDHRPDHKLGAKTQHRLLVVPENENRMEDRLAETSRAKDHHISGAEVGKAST

[6] = molecular target: T6, panel of 374 wild-type kinases (Homo sapiens, UniProt Q8IYT8); conditions: read-out: % Enzyme Activity (relative to DMSO controls), kinase ULK2
T6 construct: purchased Reaction Biology Corporation
T6 sequence (Q8IYT8 1-1036): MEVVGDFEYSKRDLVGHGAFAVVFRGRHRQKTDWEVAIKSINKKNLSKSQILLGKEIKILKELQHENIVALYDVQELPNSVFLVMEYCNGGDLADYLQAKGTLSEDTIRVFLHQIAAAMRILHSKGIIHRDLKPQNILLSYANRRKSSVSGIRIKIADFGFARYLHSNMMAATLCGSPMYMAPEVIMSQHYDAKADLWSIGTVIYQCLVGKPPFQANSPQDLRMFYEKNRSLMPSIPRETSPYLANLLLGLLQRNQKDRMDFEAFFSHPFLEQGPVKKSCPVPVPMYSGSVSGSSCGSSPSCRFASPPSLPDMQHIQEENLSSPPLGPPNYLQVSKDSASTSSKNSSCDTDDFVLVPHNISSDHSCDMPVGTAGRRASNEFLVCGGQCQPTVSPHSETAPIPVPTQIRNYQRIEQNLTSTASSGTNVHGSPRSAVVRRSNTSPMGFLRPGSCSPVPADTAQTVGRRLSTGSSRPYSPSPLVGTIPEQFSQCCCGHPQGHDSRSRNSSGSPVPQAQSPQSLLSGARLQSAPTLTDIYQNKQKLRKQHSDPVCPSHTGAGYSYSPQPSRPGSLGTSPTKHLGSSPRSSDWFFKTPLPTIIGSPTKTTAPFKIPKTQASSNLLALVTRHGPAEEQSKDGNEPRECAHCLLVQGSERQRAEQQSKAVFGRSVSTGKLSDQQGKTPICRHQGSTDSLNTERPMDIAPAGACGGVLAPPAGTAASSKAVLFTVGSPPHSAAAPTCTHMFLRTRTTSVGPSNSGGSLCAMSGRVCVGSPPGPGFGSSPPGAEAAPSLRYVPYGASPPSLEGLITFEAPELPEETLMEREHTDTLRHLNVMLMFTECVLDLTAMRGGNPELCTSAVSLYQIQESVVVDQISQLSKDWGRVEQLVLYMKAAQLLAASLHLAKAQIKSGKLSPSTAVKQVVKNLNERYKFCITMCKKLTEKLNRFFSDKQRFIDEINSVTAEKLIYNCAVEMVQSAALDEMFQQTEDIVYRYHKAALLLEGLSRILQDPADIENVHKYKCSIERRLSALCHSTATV

T1 sequence (P53355 whole entry): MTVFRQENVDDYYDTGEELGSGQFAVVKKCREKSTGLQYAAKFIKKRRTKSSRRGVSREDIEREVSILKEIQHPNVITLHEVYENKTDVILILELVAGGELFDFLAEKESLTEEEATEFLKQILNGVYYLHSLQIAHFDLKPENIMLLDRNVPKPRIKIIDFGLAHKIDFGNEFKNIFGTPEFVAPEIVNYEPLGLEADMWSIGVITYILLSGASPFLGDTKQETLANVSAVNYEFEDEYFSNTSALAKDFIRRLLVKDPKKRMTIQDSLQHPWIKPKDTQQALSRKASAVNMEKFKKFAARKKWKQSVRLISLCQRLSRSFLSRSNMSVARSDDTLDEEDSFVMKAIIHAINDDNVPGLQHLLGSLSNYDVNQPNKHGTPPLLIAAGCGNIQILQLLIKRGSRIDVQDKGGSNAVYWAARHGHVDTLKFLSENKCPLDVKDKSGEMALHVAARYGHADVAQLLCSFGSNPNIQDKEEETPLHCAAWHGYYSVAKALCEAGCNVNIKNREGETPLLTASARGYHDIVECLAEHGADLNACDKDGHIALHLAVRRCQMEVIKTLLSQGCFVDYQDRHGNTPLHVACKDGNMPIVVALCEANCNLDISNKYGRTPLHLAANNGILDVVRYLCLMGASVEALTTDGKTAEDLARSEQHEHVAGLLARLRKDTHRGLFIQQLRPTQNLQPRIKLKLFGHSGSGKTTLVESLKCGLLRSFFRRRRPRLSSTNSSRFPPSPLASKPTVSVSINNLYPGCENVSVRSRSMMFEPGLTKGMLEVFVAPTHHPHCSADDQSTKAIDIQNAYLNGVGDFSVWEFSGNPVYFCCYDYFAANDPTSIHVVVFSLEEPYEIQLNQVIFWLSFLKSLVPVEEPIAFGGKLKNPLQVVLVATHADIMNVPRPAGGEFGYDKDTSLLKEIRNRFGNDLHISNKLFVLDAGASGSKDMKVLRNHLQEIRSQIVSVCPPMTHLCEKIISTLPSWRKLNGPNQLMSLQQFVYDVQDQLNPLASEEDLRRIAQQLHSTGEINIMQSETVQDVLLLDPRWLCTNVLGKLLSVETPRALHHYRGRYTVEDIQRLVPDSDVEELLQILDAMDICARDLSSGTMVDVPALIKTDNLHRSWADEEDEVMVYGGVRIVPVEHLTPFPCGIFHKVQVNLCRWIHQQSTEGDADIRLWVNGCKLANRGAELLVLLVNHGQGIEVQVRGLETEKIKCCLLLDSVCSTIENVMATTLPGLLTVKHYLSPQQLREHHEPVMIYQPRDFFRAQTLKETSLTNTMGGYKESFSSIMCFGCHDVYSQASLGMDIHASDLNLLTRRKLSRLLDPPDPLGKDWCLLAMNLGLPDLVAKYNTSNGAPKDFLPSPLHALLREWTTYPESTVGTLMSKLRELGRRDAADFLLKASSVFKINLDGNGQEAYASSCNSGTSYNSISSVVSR

O=C(Nc1cnn(-c2csc(C(=O)NC3COC3)c2)c1)Nc1ccccc1Cl [Compound 17, 4-(4-(3-(2-chlorophenyl)ureido)-1H-pyrazol-1-yl)-N-(oxetan-3-yl)thiophene-2-carboxamide]
remaining activity at 5 µM [1]: 104%
remaining activity at 5 µM [2]: 97.4%
remaining activity at 5 µM [3]: 99.3%
remaining activity at 5 µM [4]: 96.4%
remaining activity at 5 µM [5]: 91.5%
remaining activity at 5 µM [6]: 196%

O=C(Nc1cnn(-c2csc(C(=O)NC3COC3)c2)c1)Nc1c(F)cccc1Cl [Compound 25, 4-(4-(3-(2-chloro-6-fluorophenyl)ureido)-1H-pyrazol-1-yl)-N-(oxetan-3-yl)thiophene-2-carboxamide]
remaining activity at 5 µM [1]: 98.9%
remaining activity at 5 µM [2]: 95.6%
remaining activity at 5 µM [3]: 87.8%
remaining activity at 5 µM [4]: 94%
remaining activity at 5 µM [5]: 95.1%
remaining activity at 5 µM [6]: 105%

Cc1sc(C(=O)NC2COC2)cc1-n1cc(NC(=O)Nc2c(F)cccc2Cl)cn1 [Compound 27, 4-(4-(3-(2-chloro-6-fluorophenyl)ureido)-1H-pyrazol-1-yl)-5-methyl-N-(oxetan-3-yl)thiophene-2-carboxamide]
remaining activity at 10 µM ([1]; 10 uM): 104%
remaining activity at 10 µM ([2]; 10 uM): 87.3%
remaining activity at 10 µM ([3]; 10 uM): 93.7%
remaining activity at 10 µM ([4]; GRK7, 10 uM, read-out: % Enzyme Activity (relative to DMSO controls)): 98.3%
remaining activity at 10 µM ([5]; 10 uM): 84.7%
remaining activity at 10 µM ([6]; 10 uM): 74.9%
